Where two headings read alike, the source gives them in different places.

This is an account of results in patent US8163763B2, “Pyrimidine compounds, compositions and methods of use” (Genentech, Inc., priority 2008, dated 2012).

This assay addresses mTOR kinase (purified recombinant mTOR(1360-2549)+GBL) (Homo sapiens, UniProt P42345). The experiment in a line: In vitro mTOR kinase assay (TR-FRET). Format: biochemical. The text has this:
a. In vitro mTOR Kinase Assay
The reaction is stopped by an addition of a Terbium-labeled phospho-specific antibody, e.g., Tb-labeled anti-p4E-BP1 T37/T46, (Invitrogen, product #PR8835A), EDTA, and TR-FRET buffer solution (Invitrogen, Product #PR3756B). Product formation is detected by way of time-resolved fluorescence resonance energy transfer (TR-FRET), which occurs when the phosphorylated substrate and labeled antibody are in close proximity due to phospho-specific binding. Enzymatic activity is measured as an increase in TR-FRET signal using a Perkin Elmer Envision plate reader.
Compound activity is tested in 10 point dose curves starting at the highest final concentration of 10 uM. They are serially diluted in 100% DMSO prior to further dilution with assay buffer. […] 8 μL of solution containing 2 nM Tb-anti-p4E-BP1 antibody & 10 mM EDTA diluted TR-FRET buffer is then added and incubated for 30 minutes to stop the reaction. The plate is scanned with the Envision plate reader. Ki values are calculated in Assay Explorer using the Morrison ATP-competitive tight binding equation for Ki apparent determination.

The mark [1] stands for this setting: class of Ki in the mTOR kinase assay, read-out: mTOR Activity Level.
Setting [2] is: mTOR kinase assay of Example 496, read-out: Ki.

Chain of mTOR kinase (purified recombinant mTOR(1360-2549)+GBL) (P42345 1360-2549): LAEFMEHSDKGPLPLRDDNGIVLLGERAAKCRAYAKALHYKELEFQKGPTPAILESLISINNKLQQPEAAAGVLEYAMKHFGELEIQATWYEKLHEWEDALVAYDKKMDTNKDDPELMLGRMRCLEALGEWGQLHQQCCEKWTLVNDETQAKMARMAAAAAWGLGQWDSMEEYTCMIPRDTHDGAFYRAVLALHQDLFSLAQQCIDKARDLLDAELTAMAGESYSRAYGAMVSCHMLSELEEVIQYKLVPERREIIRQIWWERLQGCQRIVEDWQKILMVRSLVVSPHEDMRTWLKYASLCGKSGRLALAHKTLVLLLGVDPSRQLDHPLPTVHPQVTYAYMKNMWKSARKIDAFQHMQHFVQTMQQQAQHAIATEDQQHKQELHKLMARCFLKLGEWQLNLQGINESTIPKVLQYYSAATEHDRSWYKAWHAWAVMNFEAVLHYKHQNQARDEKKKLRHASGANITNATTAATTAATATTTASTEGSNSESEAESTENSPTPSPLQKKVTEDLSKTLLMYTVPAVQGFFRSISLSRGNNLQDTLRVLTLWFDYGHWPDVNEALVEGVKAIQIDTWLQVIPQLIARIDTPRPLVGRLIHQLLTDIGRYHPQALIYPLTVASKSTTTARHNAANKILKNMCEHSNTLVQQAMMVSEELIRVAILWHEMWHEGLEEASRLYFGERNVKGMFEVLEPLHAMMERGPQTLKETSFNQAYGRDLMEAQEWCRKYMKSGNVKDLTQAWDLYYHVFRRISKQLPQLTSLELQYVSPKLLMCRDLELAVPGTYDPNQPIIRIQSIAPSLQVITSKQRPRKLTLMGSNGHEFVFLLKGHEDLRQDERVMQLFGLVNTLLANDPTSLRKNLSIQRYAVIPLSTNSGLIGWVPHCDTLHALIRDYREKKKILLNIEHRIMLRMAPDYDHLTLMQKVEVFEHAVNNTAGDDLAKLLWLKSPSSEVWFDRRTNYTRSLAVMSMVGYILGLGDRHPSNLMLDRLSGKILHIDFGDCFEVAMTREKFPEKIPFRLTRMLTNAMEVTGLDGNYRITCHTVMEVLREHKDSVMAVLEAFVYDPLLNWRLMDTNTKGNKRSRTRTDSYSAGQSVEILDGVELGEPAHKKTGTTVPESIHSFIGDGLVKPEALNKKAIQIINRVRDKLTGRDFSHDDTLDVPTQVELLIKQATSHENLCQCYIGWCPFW
Chain of mTOR kinase (purified recombinant mTOR(1360-2549)+GBL) (Q9BVC4 whole entry partner): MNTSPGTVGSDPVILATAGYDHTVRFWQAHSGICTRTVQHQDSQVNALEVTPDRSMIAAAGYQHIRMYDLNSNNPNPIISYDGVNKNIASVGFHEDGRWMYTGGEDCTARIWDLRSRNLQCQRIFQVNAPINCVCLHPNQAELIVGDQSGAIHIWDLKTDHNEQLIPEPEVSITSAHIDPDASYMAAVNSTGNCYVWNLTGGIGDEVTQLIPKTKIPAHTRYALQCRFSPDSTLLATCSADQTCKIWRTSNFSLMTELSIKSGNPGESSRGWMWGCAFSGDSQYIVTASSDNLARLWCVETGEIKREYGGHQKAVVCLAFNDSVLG

In the case of `CCNC(=O)Nc1ccc(-c2nc3c(c(N4CCOCC4)n2)CCN(C(=O)N2CCOCC2)C3)cc1`, the Ki under setting [1] was less than 100 nM.

Take `CC(=O)Nc1ccc(-c2nc3c(c(N4CCCOCC4)n2)CN(Cc2ccccc2)C3=O)cc1`: under setting [2], the Ki turned out to be 252 nM.

Take `CCNC(=O)Nc1ccc(-c2nc3c(c(N4CCOCC4)n2)CN(C(=O)c2cccnc2)CC3)cc1`: under setting [1], the Ki is less than 100 nM.

For the molecule `CCNC(=O)Nc1ccc(-c2nc3c(c(N4CCOC[C@@H]4C)n2)CCN(C(=O)OC(C)(C)C)C3)cc1`, under setting [1], the Ki was less than 100 nM.

As to `CCNC(=O)Nc1ccc(-c2nc3c(c(N4CCCOCC4)n2)CN(C(=O)OCc2ccccc2)C3)cc1` [drawing 625], under setting [2], the Ki came out at 2 nM.

`CCNC(=O)Nc1ccc(-c2nc3c(c(N4CCCOCC4)n2)CN(C2CCN(C(C)=O)CC2)C3)cc1`: the Ki under setting [1] was less than 100 nM.

Take `CCNC(=O)Nc1ccc(-c2nc3c(c(N4CCCOCC4)n2)CN(S(=O)(=O)c2ccccc2)C3)cc1`: the Ki under setting [1] was less than 100 nM.

Take `NC(=O)c1ccc(-c2nc3c(c(N4CCOCC4)n2)CN(c2ncccn2)C3)cc1`: the Ki under setting [1] was 100 to 5000 nM.

For `CCNC(=O)Nc1ccc(-c2nc3c(c(N4CCOCC4)n2)CCN(C(=O)c2cocn2)C3)cc1`, under setting [1], the Ki was less than 100 nM.

Regarding `CCNC(=O)Nc1ccc(-c2nc3c(c(N4CCOCC4)n2)CCN(c2ccnc(N)n2)C3)cc1`, the Ki under setting [1] is less than 100 nM.

Take `O=C(Nc1ccc(-c2nc3c(c(N4CCOCC4)n2)CCN(c2ncccn2)C3)cc1)NC1CCC1`: under setting [1], the Ki is less than 100 nM.

Take `Nc1ccc(-c2nc3c(c(N4CCOCC4)n2)CCN(c2ncccn2)C3)cc1`: the Ki under setting [1] fell in the range of 100 to 5000 nM.

Turning to `CCNC(=O)Nc1ccc(-c2nc3c(c(C4=CCOCC4)n2)CCN(c2ncccn2)C3)cc1`, the Ki under setting [1] was in the range of 100 to 5000 nM.

Consider `O=C(NCCO)Nc1ccc(-c2nc3c(c(N4CCOCC4)n2)CCN(c2ncccn2)C3)cc1`, for which the Ki under setting [1] is 100 to 5000 nM.

For the molecule `CCNC(=O)Nc1ccc(-c2nc3c(c(N4CCOC[C@@H]4C)n2)CCN(c2ccnc(N)n2)C3)cc1`, the Ki under setting [1] is less than 100 nM.

`CCNC(=O)Nc1ccc(-c2nc3c(c(N4CCCOCC4)n2)CCN(c2ncccn2)C3)cc1`: under setting [1], the Ki is less than 100 nM.

As for `CCNC(=O)Nc1ccc(-c2nc3c(c(-c4cccnc4)n2)CCN(Cc2ccccc2)C3)cc1`, the Ki under setting [1] lay in the range of 100 to 5000 nM.

For the molecule `CC(=O)Nc1ccc(-c2nc3c(c(N4CCOCC4)n2)CN(Cc2ccccc2)C3=O)cc1`, the Ki under setting [1] lay within 100 to 5000 nM.

With `O=C(NCC1CC1)Nc1ccc(-c2nc3c(c(N4CCOCC4)n2)CCN(c2ncccn2)C3)cc1`, the Ki under setting [1] is less than 100 nM.

Regarding `CCNC(=O)Nc1ccc(-c2nc3c(c(N4CCOCC4)n2)CN(C(=O)OCC)C3)cc1`, under setting [1], the Ki was less than 100 nM.

As for `CCNC(=O)Nc1ccc(-c2nc3c(c(N4CCOC[C@@H]4C)n2)CN(c2ccnc(N)n2)CC3)cc1`, the Ki under setting [1] is less than 100 nM.

As for `CCNC(=O)Nc1ccc(-c2nc3c(c(N4CCCOCC4)n2)CCN(C(C)=O)C3)cc1`, the Ki under setting [1] is less than 100 nM.

Regarding `CCNC(=O)Nc1ccc(-c2nc3c(c(N4CCOCC4)n2)CN(C(=O)c2ccc(Cl)cc2)CC3)cc1`, the Ki under setting [1] is less than 100 nM.

With `O=c1[nH]c2ccc(-c3nc4c(c(N5CCOCC5)n3)CCN(c3ncccn3)C4)cc2[nH]1`, the Ki under setting [1] fell in the range of 100 to 5000 nM.

Regarding `CC(C)(C)OC(=O)N1Cc2nc(-c3cnc(N)nc3)nc(C3C=COCC3)c2C1` (stereo not shown), under setting [2], the Ki is 753 nM.

In the case of `COc1ccc(CN2Cc3c(nc(-c4cnc(N)nc4)nc3N3CCOCC3)C2=O)cc1`, under setting [1], the Ki was 100 to 5000 nM.

As to `CCNC(=O)Nc1ccc(-c2nc3c(c(C4CCOCC4)n2)CN(C(=O)OC(C)(C)C)C3)cc1`, the Ki under setting [1] lay within 100 to 5000 nM.

For the molecule `CCNC(=O)Nc1ccc(-c2nc3c(c(N4CCOCC4)n2)CCN(C(=O)c2ccccn2)C3)cc1`, under setting [1], the Ki is less than 100 nM.

Consider `CCNC(=O)Nc1ccc(-c2nc3c(c(N4CCOCC4)n2)CN(C(=O)OCc2ccccc2)C3)cc1`, for which the Ki under setting [1] was less than 100 nM.

`CCNC(=O)Nc1ccc(-c2nc3c(c(N4CCOCC4)n2)CN(C(=O)c2ccncc2)CC3)cc1`: under setting [1], the Ki is less than 100 nM.

As to `CC(=O)Nc1ccc(-c2nc3c(c(N4CCOCC4)n2)CN(c2ncccn2)C3)cc1`, under setting [1], the Ki was in the range of 100 to 5000 nM.

In the case of `CCNC(=O)Nc1ccc(-c2nc3c(c(N4CCOCC4)n2)CN(C2CCN(C(C)=O)CC2)C3)cc1`, the Ki under setting [1] was less than 100 nM.

On to `CCNC(=O)Nc1ccc(-c2nc3c(c(N4CCOCC4)n2)CN(C(=O)c2ccccc2Cl)CC3)cc1`, for which, under setting [1], the Ki is less than 100 nM.

Regarding `CCNC(=O)Nc1ccc(-c2nc3c(c(N4CCCOCC4)n2)CN(c2ncccn2)C3)cc1`, under setting [1], the Ki was less than 100 nM.

Regarding `CS(=O)(=O)Nc1ccc(-c2nc3c(c(N4CCOCC4)n2)CN(Cc2ccccc2)C3=O)cc1`, under setting [1], the Ki was in the range of 100 to 5000 nM.

Consider `CCNC(=O)Nc1ccc(-c2nc3c(c(N4CCOCC4)n2)CN(Cc2cccc(O)c2)C3)cc1` [drawing 624], for which the Ki under setting [2] is 9 nM.

Consider `CCNC(=O)Nc1ccc(-c2nc3c(c(N4CCOCC4)n2)CN(Cc2ccc(O)cc2)C3)cc1`, for which, under setting [1], the Ki is less than 100 nM.

Turning to `c1cnc(N2CCc3c(nc(-c4ccc5[nH]ncc5c4)nc3N3CCOCC3)C2)nc1` [drawing 585], the Ki under setting [1] was in the range of 100 to 5000 nM.

For the molecule `CCNC(=O)Nc1ccc(-c2nc3c(c(N4CCOCC4)n2)CN(c2ccnc(N)n2)C3)cc1`, the Ki under setting [1] is less than 100 nM.

On to `O=C(Nc1ccc(-c2nc3c(c(N4CCOCC4)n2)CCN(c2ncccn2)C3)cc1)NC1CC1`, for which, under setting [1], the Ki is less than 100 nM.

Consider `CCNC(=O)Nc1ccc(-c2nc3c(c(N4CCOCC4)n2)CCN(C(=O)c2ccnn2C)C3)cc1`, for which the Ki under setting [1] is less than 100 nM.

On to `O=C(Nc1ccc(-c2nc3c(c(N4CCOCC4)n2)CN(c2ncccn2)C3)cc1)NC1CCCC1` [drawing 626], for which the Ki under setting [2] came out at 41.2 nM.

With `CCNC(=O)Nc1ccc(-c2nc3c(c(N4CCOCC4)n2)CN(C(=O)Cc2ccccc2)CC3)cc1` [drawing 633], the Ki under setting [2] is 52 nM.

On to `CCNC(=O)Nc1ccc(-c2nc3c(c(N4CCOCC4)n2)CN(C(=O)/C=C/c2ccccc2)CC3)cc1`, for which, under setting [1], the Ki is less than 100 nM.

Turning to `c1cnc(N2CCc3c(nc(-c4ccc(-n5cccn5)cc4)nc3N3CCOCC3)C2)nc1`, the Ki under setting [1] is 100 to 5000 nM.

In the case of `CCNC(=O)Nc1ccc(-c2nc3c(c(N4CCOCC4)n2)CN(C(=O)Cc2ccccc2)CC3)cc1` [drawing 603], the Ki under setting [1] was less than 100 nM.

As to `Cc1nnc(-c2ccc(-c3nc4c(c(N5CCOCC5)n3)CCN(c3ncccn3)C4)cc2)o1`, under setting [1], the Ki is 100 to 5000 nM.

Take `CCNC(=O)Nc1ccc(-c2nc3c(c(N4CCCOCC4)n2)CCN(C(=O)OCc2ccccc2)C3)cc1`: under setting [1], the Ki was less than 100 nM.

`CCNC(=O)Nc1ccc(-c2nc3c(c(N4CCOCC4)n2)CCN(C(=O)OCc2ccccc2)C3)cc1`: the Ki under setting [1] was less than 100 nM.

For `c1cnc(N2CCc3c(nc(-c4ccc5[nH]ncc5c4)nc3N3CCOCC3)C2)nc1` [drawing 628], the Ki under setting [2] was found to be 636 nM.

For `CCNC(=O)Nc1ccc(-c2nc3c(c(N4CCOCC4)n2)CN(C(=O)c2ccccn2)CC3)cc1`, the Ki under setting [1] is less than 100 nM.

`CCNC(=O)Nc1ccc(-c2nc3c(c(N4CCOCC4)n2)CCN(C(=O)c2c(C)oc4ncn(C)c(=O)c24)C3)cc1`: the Ki under setting [1] is less than 100 nM.

On to `CCNC(=O)Nc1ccc(-c2nc3c(c(N4CCOCC4)n2)CCN(C(=O)c2ccncc2)C3)cc1`, for which the Ki under setting [1] was less than 100 nM.

As for `CCNC(=O)Nc1ccc(-c2nc3c(c(N4CCOC[C@@H]4C)n2)CCN(c2nc(C)cc(C)n2)C3)cc1`, the Ki under setting [2] was 4 nM.

On to `CCNC(=O)Nc1ccc(-c2nc3c(c(N4CCOCC4)n2)CN(c2ccnc(N)n2)CC3)cc1`, for which, under setting [1], the Ki is less than 100 nM.

Take `CCNC(=O)Nc1ccc(-c2nc3c(c(N4CCOCC4)n2)CCN2C(=O)N(CC)CC[C@@H]32)cc1`: under setting [2], the Ki is 5 nM.

In the case of `CCNC(=O)Nc1ccc(-c2nc3c(c(N4CCOCC4)n2)CCN(C(=O)[C@H](C)O)C3)cc1`, the Ki under setting [1] is less than 100 nM.

Regarding `CC(C)(C)OC(=O)N1Cc2nc(-c3cnc(N)nc3)nc(N3CCOCC3)c2C1`, the Ki under setting [1] is 100 to 5000 nM.

For `CCNC(=O)Nc1ccc(-c2nc3c(c(N4CCOCC4)n2)CCN(C(=O)c2cccnc2)C3)cc1`, under setting [1], the Ki is less than 100 nM.

In the case of `CCNC(=O)Nc1ccc(-c2nc3c(c(N4CCOC[C@@H]4C)n2)CNCC3)cc1`, under setting [1], the Ki is less than 100 nM.

On to `CCNC(=O)Nc1ccc(-c2nc3c(c(N4CCOC[C@@H]4C)n2)CCNC3)cc1`, for which the Ki under setting [1] is less than 100 nM.

Turning to `CCNC(=O)Nc1ccc(-c2nc3c(c(N4CCOCC4)n2)CN(Cc2cccc(O)c2)C3)cc1` [drawing 553], the Ki under setting [1] was less than 100 nM.

In the case of `CCNC(=O)Nc1ccc(-c2nc3c(c(N4CCCOCC4)n2)CN(C(=O)OC(C)(C)C)C3)cc1`, under setting [1], the Ki was less than 100 nM.

Turning to `CCNC(=O)Nc1ccc(-c2nc3c(c(N4CCCOCC4)n2)CN(C(=O)OCc2ccccc2)C3)cc1` [drawing 567], the Ki under setting [1] is less than 100 nM.

For the molecule `C[C@H]1COCCN1c1nc(-c2ccc(NC(=O)NCC(F)F)cc2)nc2c1CN(C(=O)c1nccs1)CC2`, the Ki under setting [2] was determined as 32 nM.

As to `CCNC(=O)Nc1ccc(-c2nc3c(c(N4CCOCC4)n2)CNCC3)cc1`, the Ki under setting [1] was less than 100 nM.

Take `CCNC(=O)Nc1ccc(-c2nc3c(c(N4CCOCC4)n2)CCN(C2CCN(C)CC2)C3)cc1`: the Ki under setting [1] was less than 100 nM.

For `CCNC(=O)Nc1ccc(-c2nc3c(c(N4CCCOCC4)n2)CN(S(C)(=O)=O)C3)cc1`, the Ki under setting [1] was less than 100 nM.

As to `CCNC(=O)Nc1ccc(-c2nc3c(c(N4CCOCC4)n2)CCN(c2ncccn2)C3)cc1`, the Ki under setting [1] is less than 100 nM.

As for `CC(C)NC(=O)Nc1ccc(-c2nc3c(c(N4CCOCC4)n2)CCN(c2ncccn2)C3)cc1`, the Ki under setting [1] lay in the range of 100 to 5000 nM.

Consider `CNC(=O)Nc1ccc(-c2nc3c(c(N4CCOCC4)n2)CN(Cc2ccc(OC)cc2)C3=O)cc1`, for which the Ki under setting [1] was less than 100 nM.

Consider `CCNC(=O)Nc1ccc(-c2nc3c(c(C4CCOCC4)n2)CCN(c2ncccn2)C3)cc1`, for which, under setting [1], the Ki is 100 to 5000 nM.

Take `CN(C)C(=O)Nc1ccc(-c2nc3c(c(N4CCOCC4)n2)CN(c2ncccn2)C3)cc1`: under setting [1], the Ki is 100 to 5000 nM.
